Assay [1] has as its system DNA threads mounted on a glass slide. Briefly: Detection of DNA mounted on a glass slide by fluorescence microscopy. Conditions: DNA 0.3 μg/mL, final dye concentration 0.4 mg/mL, 50× objective, DAPI filter cube. It is filed as binding. How it is done: The DNA binding and enhanced detection ability were also observed using trace amounts of DNA mounted on a glass slide. In this experiment, a DNA solution was prepared in DI water at 0.3 μg/mL and was mixed with the QD-fluorescent dye conjugate nanoparticles (Ex. 1) or with the Hoechst 33342 only (control experiment) at a final dye concentration of 0.4 mg/mL. A 3 μL solution of each composition was mounted on a slide, smeared and let to dry. The slide was then observed under a fluorescence microscope (Olympus BX51) using 50× objective and a DAPI filter cube (UMWU2) and equipped with an Osram HBO50W/AC L1 Short arc mercury lamp as an excitation source. […] All the images were taken using the same microscopy settings. FIG. 6 indicates an enhanced ability to detect DNA on a glass slide (zoomed in to show DNA strands covered with Hoechst-QDs).

Assay [2] has as its system A431 human squamous cell carcinoma. In words: Labelling of nuclear and cytoplasmic DNA or RNA in live cells. It is filed as cell-based. The following applies: conjugate 50 μg/mL or Hoechst 33342 0.2 μg/mL, 15h.

For `CCOc1ccc(-c2nc3cc(-c4nc5cc(N6CCN(C)CC6)ccc5[nH]4)ccc3[nH]2)cc1.Cl.Cl.Cl` [Hoechst 33342, 2′-(4-ethoxyphenyl)-5-(4-methyl-1-piperazinyl)-2,5′-bi-1H-benzimidazole trihydrochloride], the “detection of DNA threads on glass slide” value in assay [1] was “almost no signal was observed”. Further, the “labelling of cells (fluorescence microscopy)” value in assay [2] is “the nuclei were stained but without the ability to detect cell-cell communication”.

(Values after US20210190775A1, “COMPOSITIONS AND METHODS FOR TAGGING AND DETECTING NUCLEIC ACIDS” (Nanoco Technologies Ltd., priority 2019, published 2021).)
